According to the NIST ThermoML archive (doi:10.1016/j.jct.2017.08.004):

Experiment: molar heat capacity at constant pressure
Conditions: 101.33 kPa, Crystal

OC[C@@H](O)[C@@H](O)CO [meso-1,2,3,4-butanetetrol]
Conditions | molar heat capacity at constant pressure [J/K/mol]
1 K, relaxation calorimetry | 0.00103
1.924 K, relaxation calorimetry | 0.005451
2 K, relaxation calorimetry | 0.006099
2.124 K, relaxation calorimetry | 0.007391
2.347 K, relaxation calorimetry | 0.009418
2.604 K, relaxation calorimetry | 0.01294
2.892 K, relaxation calorimetry | 0.01782
3 K, relaxation calorimetry | 0.01982
3.203 K, relaxation calorimetry | 0.02425
3.549 K, relaxation calorimetry | 0.03325
3.937 K, relaxation calorimetry | 0.04561
4 K, relaxation calorimetry | 0.04786
4.364 K, relaxation calorimetry | 0.06293
4.842 K, relaxation calorimetry | 0.08785
5 K, relaxation calorimetry | 0.09724
5.372 K, relaxation calorimetry | 0.1225
5.959 K, relaxation calorimetry | 0.1717
6 K, relaxation calorimetry | 0.1763
6.613 K, relaxation calorimetry | 0.2418
7 K, relaxation calorimetry | 0.2944
7.34 K, relaxation calorimetry | 0.3445
8 K, relaxation calorimetry | 0.4614
8.147 K, relaxation calorimetry | 0.493
9 K, relaxation calorimetry | 0.6863
9.042 K, relaxation calorimetry | 0.6996
10 K, relaxation calorimetry | 0.9714
10.11 K, relaxation calorimetry | 0.9995
11.21 K, relaxation calorimetry | 1.394
12.45 K, relaxation calorimetry | 1.929
13.81 K, relaxation calorimetry | 2.607
15 K, relaxation calorimetry | 3.273
15.35 K, relaxation calorimetry | 3.484
17.04 K, relaxation calorimetry | 4.582
18.93 K, relaxation calorimetry | 5.892
20 K, relaxation calorimetry | 6.679
21.01 K, relaxation calorimetry | 7.451
23.34 K, relaxation calorimetry | 9.268
25 K, relaxation calorimetry | 10.62
25.88 K, relaxation calorimetry | 11.3
28.73 K, relaxation calorimetry | 13.63
30 K, relaxation calorimetry | 14.7
31.9 K, relaxation calorimetry | 16.25
35 K, relaxation calorimetry | 18.79
35.42 K, relaxation calorimetry | 19.19
39.33 K, relaxation calorimetry | 22.36
40 K, relaxation calorimetry | 22.84
43.67 K, relaxation calorimetry | 25.77
45 K, relaxation calorimetry | 26.81
48.45 K, relaxation calorimetry | 29.39
50 K, relaxation calorimetry | 30.63
53.77 K, relaxation calorimetry | 33.35
55 K, relaxation calorimetry | 34.26
59.7 K, relaxation calorimetry | 37.69
60 K, relaxation calorimetry | 37.94
65 K, relaxation calorimetry | 41.5
66.26 K, relaxation calorimetry | 42.34
70 K, relaxation calorimetry | 44.95
73.58 K, relaxation calorimetry | 47.19
75 K, relaxation calorimetry | 48.3
80 K, relaxation calorimetry | 51.54
81.69 K, relaxation calorimetry | 52.8
85 K, relaxation calorimetry | 54.68
90 K, relaxation calorimetry | 57.74
90.67 K, relaxation calorimetry | 58.3
95 K, relaxation calorimetry | 60.72
100 K, relaxation calorimetry | 63.64
100.62 K, relaxation calorimetry | 63.74
110 K, relaxation calorimetry | 69.28
110.75 K, relaxation calorimetry | 69.63
120 K, relaxation calorimetry | 74.73
120.81 K, relaxation calorimetry | 75.51
130 K, relaxation calorimetry | 80.03
130.85 K, relaxation calorimetry | 80.63
140 K, relaxation calorimetry | 85.23
140.98 K, relaxation calorimetry | 85.76
150 K, relaxation calorimetry | 90.34
151.1 K, relaxation calorimetry | 90.49
160 K, relaxation calorimetry | 95.4
161.19 K, relaxation calorimetry | 95.3
170 K, relaxation calorimetry | 100.41
171.29 K, relaxation calorimetry | 100.67
180 K, relaxation calorimetry | 105.4
181.37 K, relaxation calorimetry | 106.96
188.15 K, Small sample (50 mg) DSC | 104.81
189.15 K, Small sample (50 mg) DSC | 105.65
190 K, relaxation calorimetry | 110.37
190.15 K, Small sample (50 mg) DSC | 106.41
191.15 K, Small sample (50 mg) DSC | 107.06
191.45 K, relaxation calorimetry | 111.84
192.15 K, Small sample (50 mg) DSC | 107.53
193.15 K, Small sample (50 mg) DSC | 107.94
194.15 K, Small sample (50 mg) DSC | 108.84
195.15 K, Small sample (50 mg) DSC | 109.73
196.15 K, Small sample (50 mg) DSC | 110.56
197.15 K, Small sample (50 mg) DSC | 111.25
198.15 K, Small sample (50 mg) DSC | 111.77
199.15 K, Small sample (50 mg) DSC | 112.42
200 K, relaxation calorimetry | 115.34
200.15 K, Small sample (50 mg) DSC | 113.07
201.15 K, Small sample (50 mg) DSC | 113.73
201.6 K, relaxation calorimetry | 116.2
202.15 K, Small sample (50 mg) DSC | 114.29
203.15 K, Small sample (50 mg) DSC | 114.78
204.15 K, Small sample (50 mg) DSC | 115.4
205.15 K, Small sample (50 mg) DSC | 115.95
206.15 K, Small sample (50 mg) DSC | 116.45
207.15 K, Small sample (50 mg) DSC | 116.98
208.15 K, Small sample (50 mg) DSC | 117.43
209.15 K, Small sample (50 mg) DSC | 117.85
210 K, relaxation calorimetry | 120.31
210.15 K, Small sample (50 mg) DSC | 118.46
211.15 K, Small sample (50 mg) DSC | 119.05
211.7 K, relaxation calorimetry | 120.82
212.15 K, Small sample (50 mg) DSC | 119.45
213.15 K, Small sample (50 mg) DSC | 120.03
214.15 K, Small sample (50 mg) DSC | 120.6
215.15 K, Small sample (50 mg) DSC | 120.96
216.15 K, Small sample (50 mg) DSC | 121.61
217.15 K, Small sample (50 mg) DSC | 122.09
218.15 K, Small sample (50 mg) DSC | 122.56
219.15 K, Small sample (50 mg) DSC | 123.25
220 K, relaxation calorimetry | 125.28
220.15 K, Small sample (50 mg) DSC | 123.79
221.15 K, Small sample (50 mg) DSC | 124.32
221.79 K, relaxation calorimetry | 126.14
222.15 K, Small sample (50 mg) DSC | 124.76
223.15 K, Small sample (50 mg) DSC | 125.31
224.15 K, Small sample (50 mg) DSC | 125.9
225.15 K, Small sample (50 mg) DSC | 126.32
226.15 K, Small sample (50 mg) DSC | 126.8
227.15 K, Small sample (50 mg) DSC | 127.31
228.15 K, Small sample (50 mg) DSC | 127.86
229.15 K, Small sample (50 mg) DSC | 128.26
230 K, relaxation calorimetry | 130.27
230.15 K, Small sample (50 mg) DSC | 128.74
231.15 K, Small sample (50 mg) DSC | 129.25
231.89 K, relaxation calorimetry | 131.18
232.15 K, Small sample (50 mg) DSC | 129.79
233.15 K, Small sample (50 mg) DSC | 130.29
234.15 K, Small sample (50 mg) DSC | 130.84
235.15 K, Small sample (50 mg) DSC | 131.47
236.15 K, Small sample (50 mg) DSC | 132.03
237.15 K, Small sample (50 mg) DSC | 132.65
238.15 K, Small sample (50 mg) DSC | 133.18
239.15 K, Small sample (50 mg) DSC | 133.62
240 K, relaxation calorimetry | 135.27
240.15 K, Small sample (50 mg) DSC | 134.1
241.15 K, Small sample (50 mg) DSC | 134.58
241.92 K, relaxation calorimetry | 136.06
242.15 K, Small sample (50 mg) DSC | 135
243.15 K, Small sample (50 mg) DSC | 135.48
244.15 K, Small sample (50 mg) DSC | 135.91
245.15 K, Small sample (50 mg) DSC | 136.33
246.15 K, Small sample (50 mg) DSC | 136.8
247.15 K, Small sample (50 mg) DSC | 137.31
248.15 K, Small sample (50 mg) DSC | 137.82
249.15 K, Small sample (50 mg) DSC | 138.21
250 K, relaxation calorimetry | 140.29
250.15 K, Small sample (50 mg) DSC | 138.96
251.15 K, Small sample (50 mg) DSC | 139.41
251.99 K, relaxation calorimetry | 141.26
252.15 K, Small sample (50 mg) DSC | 139.85
253.15 K, Small sample (50 mg) DSC | 140.35
254.15 K, Small sample (50 mg) DSC | 140.97
255.15 K, Small sample (50 mg) DSC | 141.49
256.15 K, Small sample (50 mg) DSC | 142.02
257.15 K, Small sample (50 mg) DSC | 142.62
258.15 K, Small sample (50 mg) DSC | 143.2
259.15 K, Small sample (50 mg) DSC | 143.78
260 K, relaxation calorimetry | 145.33
260.15 K, Small sample (50 mg) DSC | 144.21
261.15 K, Small sample (50 mg) DSC | 144.74
262.11 K, relaxation calorimetry | 146.2
262.15 K, Small sample (50 mg) DSC | 145.34
263.15 K, Small sample (50 mg) DSC | 145.66
